Data taken from PMC9910428 (Proceedings of the National Academy of Sciences of the …, 2022).
Like-named read-outs stand apart in the source and are kept apart here.

What was measured:
Sm.TRPM[D1677E]PZQ = experiment: FLIPR Ca2+ reporter assay, Sm.TRPM[D1677E]PZQ mutant; assay type: cell-based, Schistosoma mansoni
Sm.TRPM[N1388H]PZQ = experiment: FLIPR Ca2+ reporter assay, Sm.TRPM[N1388H]PZQ mutant; assay type: cell-based, Schistosoma mansoni
Sm.TRPM[T1518S]PZQ = experiment: FLIPR Ca2+ reporter assay, Sm.TRPM[T1518S]PZQ mutant; assay type: cell-based, Schistosoma mansoni
Ml.TRPM[E1495D]PZQ = Ml.TRPM[E1495D]PZQ (Macrostomum lignano, UniProt A0A267GS13); assay type: cell-based
Sm.TRPM[D1677Y]PZQ = experiment: FLIPR Ca2+ reporter assay, Sm.TRPM[D1677Y]PZQ mutant; assay type: cell-based, Schistosoma mansoni
Sm.TRPM[W1667A]PZQ = experiment: FLIPR Ca2+ reporter assay, Sm.TRPM[W1667A]PZQ mutant; assay type: cell-based, Schistosoma mansoni
cyclophyllidean cestodes = settings: cited from earlier work
[1] = system: larval and adult diphyllobothriids; settings: cited from earlier work
D. japonica = settings: read-out: EC50 for evoking bipolarity; cited from earlier work
Fh.TRPMPZQ = Fh.TRPMPZQ with S1 threonine residue; cited from earlier work

Chain of Ml.TRPM[E1495D]PZQ (A0A267GS13 1-1954, stated change not applied): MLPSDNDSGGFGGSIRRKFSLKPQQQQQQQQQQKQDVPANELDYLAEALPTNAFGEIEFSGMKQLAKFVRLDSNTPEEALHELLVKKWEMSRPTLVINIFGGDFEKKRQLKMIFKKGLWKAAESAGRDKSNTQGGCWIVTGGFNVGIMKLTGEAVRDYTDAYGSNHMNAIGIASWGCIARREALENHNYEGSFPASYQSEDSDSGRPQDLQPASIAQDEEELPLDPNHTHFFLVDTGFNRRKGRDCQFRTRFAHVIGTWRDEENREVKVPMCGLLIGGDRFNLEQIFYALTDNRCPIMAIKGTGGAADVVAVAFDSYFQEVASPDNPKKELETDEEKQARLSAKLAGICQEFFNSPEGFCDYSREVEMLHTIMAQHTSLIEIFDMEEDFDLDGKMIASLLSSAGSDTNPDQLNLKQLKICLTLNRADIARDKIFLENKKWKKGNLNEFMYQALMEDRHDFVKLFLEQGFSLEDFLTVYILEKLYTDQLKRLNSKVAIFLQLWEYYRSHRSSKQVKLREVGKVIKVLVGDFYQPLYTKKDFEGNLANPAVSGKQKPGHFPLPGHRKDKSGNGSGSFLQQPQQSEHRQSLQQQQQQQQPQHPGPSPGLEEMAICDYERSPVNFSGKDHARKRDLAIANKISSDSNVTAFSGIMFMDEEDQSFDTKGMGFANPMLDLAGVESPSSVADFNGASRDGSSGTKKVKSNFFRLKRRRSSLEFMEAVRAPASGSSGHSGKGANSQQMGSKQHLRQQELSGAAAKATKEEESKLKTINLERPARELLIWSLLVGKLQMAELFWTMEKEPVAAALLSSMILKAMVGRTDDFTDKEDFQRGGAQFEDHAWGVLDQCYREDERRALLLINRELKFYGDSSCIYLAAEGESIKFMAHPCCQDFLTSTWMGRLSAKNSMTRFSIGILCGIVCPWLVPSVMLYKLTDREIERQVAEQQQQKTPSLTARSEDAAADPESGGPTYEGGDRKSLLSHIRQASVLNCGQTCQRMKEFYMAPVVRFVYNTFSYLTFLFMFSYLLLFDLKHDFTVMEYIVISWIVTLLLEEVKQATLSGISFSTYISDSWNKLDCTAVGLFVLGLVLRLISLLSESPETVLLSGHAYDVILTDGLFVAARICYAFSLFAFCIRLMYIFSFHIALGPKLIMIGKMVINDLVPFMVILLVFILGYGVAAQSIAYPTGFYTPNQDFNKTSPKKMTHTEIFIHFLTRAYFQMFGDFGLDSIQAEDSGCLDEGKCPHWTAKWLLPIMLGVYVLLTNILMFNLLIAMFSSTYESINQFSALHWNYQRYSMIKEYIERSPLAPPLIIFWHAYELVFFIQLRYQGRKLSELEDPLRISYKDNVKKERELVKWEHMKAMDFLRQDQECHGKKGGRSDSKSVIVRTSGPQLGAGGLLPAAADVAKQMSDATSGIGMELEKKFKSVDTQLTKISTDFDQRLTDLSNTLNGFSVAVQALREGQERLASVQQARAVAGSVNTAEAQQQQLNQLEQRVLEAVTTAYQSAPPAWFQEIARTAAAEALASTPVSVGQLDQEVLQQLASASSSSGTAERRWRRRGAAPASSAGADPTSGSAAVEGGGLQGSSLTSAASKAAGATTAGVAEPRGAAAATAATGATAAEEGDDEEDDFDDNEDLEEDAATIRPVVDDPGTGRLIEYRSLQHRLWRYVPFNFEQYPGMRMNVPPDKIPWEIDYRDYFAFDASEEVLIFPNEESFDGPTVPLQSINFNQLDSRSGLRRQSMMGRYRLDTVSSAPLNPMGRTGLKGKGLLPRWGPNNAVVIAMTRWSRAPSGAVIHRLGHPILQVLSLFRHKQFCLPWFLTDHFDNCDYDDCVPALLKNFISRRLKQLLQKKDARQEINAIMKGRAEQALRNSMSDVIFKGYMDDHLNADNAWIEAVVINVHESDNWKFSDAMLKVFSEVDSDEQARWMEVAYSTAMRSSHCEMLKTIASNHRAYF

O=C(C1CCCCC1)N1CC(=O)N2CCc3ccccc3C2C1 (racemic) [(±)-PZQ, praziquantel]
responsiveness of mutant channel (Sm.TRPM[D1677E]PZQ): no responsiveness
responsiveness of mutant channel (Sm.TRPM[D1677E]PZQ; listed as PZQ): ablated sensitivity
sensitivity compared with the wild-type channel (Sm.TRPM[N1388H]PZQ): equivalent sensitivity
sensitivity compared with the wild-type channel (Sm.TRPM[T1518S]PZQ): equivalent sensitivity
increase of sensitivity versus wild-type Ml.TRPMPZQ (Ml.TRPM[E1495D]PZQ): ~ 2.5 fold
EC50 (Ml.TRPM[E1495D]PZQ; Ml.TRPM[E1495D]PZQ, Ca2+): 21.1 ± 3.1 µM
sensitivity of mutant channel compared with wild type (Sm.TRPM[D1677Y]PZQ): enhanced
sensitivity of mutant channel compared with wild type (Sm.TRPM[W1667A]PZQ): increased sensitivity
lowest concentration with deleterious effects in vitro (cyclophyllidean cestodes): 320 pM
concentration required to show lethality [1]: > 320 µM
EC50 (D. japonica): 35 ± 7 µM
sensitivity of channel (Fh.TRPMPZQ): insensitive
